# Results: PubChem BioAssay AID2060512 (Molecular Pharmacology Branch, DTP, NCI, 2025)
# System: 186277-243-T-J2-PDC complex spheroid viability
# Experiment: Anticancer human tumor 186277-243-T-J2-PDC patient-derived colon adenocarcinoma cell line growth inhibition [GQUAD]
# Conditions: for IC50: curve of first compound; for viability, T/C: stronger effect = lower value
# Method in brief: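 Tumor cells were grown as complex spheroids with HUVEC endothelial cells and mesenchymal stem cells as stroma. G-quadruplex stabilizers were combined with targeted agents over half-log dilutions from near the clinical Cmax, or from 10 microM.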
# [1] = second compound 0.0316 µM, first compound 0.0316 µM
# [2] = second compound 0.0316 µM, first compound 0.1 µM
# [3] = second compound 0.0316 µM, first compound 0.316 µM
# [4] = second compound 0.0316 µM, first compound 1 µM
# [5] = second compound 0.0316 µM, first compound 3.16 µM
# [6] = second compound 0.0316 µM, first compound 10 µM
# [7] = second compound 0.1 µM, first compound 0.0316 µM
# [8] = second compound 0.1 µM, first compound 0.1 µM
# [9] = second compound 0.1 µM, first compound 0.316 µM
# [10] = second compound 0.1 µM, first compound 1 µM
# [11] = second compound 0.1 µM, first compound 3.16 µM
# [12] = second compound 0.1 µM, first compound 10 µM
# [13] = second compound 0.316 µM, first compound 0.0316 µM
# [14] = second compound 0.316 µM, first compound 0.1 µM
# [15] = second compound 0.316 µM, first compound 0.316 µM
# [16] = second compound 0.316 µM, first compound 1 µM
# [17] = second compound 0.316 µM, first compound 3.16 µM
# [18] = second compound 0.316 µM, first compound 10 µM
# [19] = second compound 1 µM, first compound 0.0316 µM
# [20] = second compound 1 µM, first compound 0.1 µM
# [21] = second compound 1 µM, first compound 0.316 µM
# [22] = second compound 1 µM, first compound 1 µM
# [23] = second compound 1 µM, first compound 3.16 µM
# [24] = second compound 1 µM, first compound 10 µM
# [25] = second compound 3.16 µM, first compound 0.0316 µM
# [26] = second compound 3.16 µM, first compound 0.1 µM
# [27] = second compound 3.16 µM, first compound 0.316 µM
# [28] = second compound 3.16 µM, first compound 1 µM
# [29] = second compound 3.16 µM, first compound 3.16 µM
# [30] = second compound 3.16 µM, first compound 10 µM
# [31] = second compound 10 µM, first compound 0.0316 µM
# [32] = second compound 10 µM, first compound 0.1 µM
# [33] = second compound 10 µM, first compound 0.316 µM
# [34] = second compound 10 µM, first compound 1 µM
# [35] = second compound 10 µM, first compound 3.16 µM
# [36] = second compound 10 µM, first compound 10 µM
# 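Further: spheroids exposed to drugs for 7 days.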
# 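Wherever viability, T/C is given: 100% = DMSO vehicle control viability.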
structure (smiles),measurement,setting,value
CCCS(=O)(=O)Nc1ccc(F)c(C(=O)c2c[nH]c3ncc(-c4ccc(Cl)cc4)cc23)c1F + Cc1cnc(CNC(=O)c2c(=O)c3ccc(N4CCCN(C)CC4)nc3n3c2sc2ccccc23)cn1,IC50,second compound 0.0316 µM,6.12 µM
same,IC50,second compound 0.1 µM,4.93 µM
same,IC50,second compound 0.316 µM,4.41 µM
same,IC50,second compound 1 µM,< 0.0316 µM
same,IC50,second compound 3.16 µM,< 0.0316 µM
same,IC50,second compound 10 µM,< 0.0316 µM
same,"viability, T/C",[1],113%
same,"viability, T/C",[2],102%
same,"viability, T/C",[3],116%
same,"viability, T/C",[4],95.4%
same,"viability, T/C",[5],88.3%
same,"viability, T/C",[6],23.4%
same,"viability, T/C",[7],79.3%
same,"viability, T/C",[8],72.4%
same,"viability, T/C",[9],93.1%
same,"viability, T/C",[10],74.1%
same,"viability, T/C",[11],72.3%
same,"viability, T/C",[12],14.5%
same,"viability, T/C",[13],63.6%
same,"viability, T/C",[14],62.3%
same,"viability, T/C",[15],68.5%
same,"viability, T/C",[16],59%
same,"viability, T/C",[17],65.7%
same,"viability, T/C",[18],16.1%
same,"viability, T/C",[19],47.7%
same,"viability, T/C",[20],47%
same,"viability, T/C",[21],54.8%
same,"viability, T/C",[22],49.3%
same,"viability, T/C",[23],47.5%
same,"viability, T/C",[24],15.8%
same,"viability, T/C",[25],31.3%
same,"viability, T/C",[26],43.9%
same,"viability, T/C",[27],48.8%
same,"viability, T/C",[28],41%
same,"viability, T/C",[29],38.3%
same,"viability, T/C",[30],9.83%
same,"viability, T/C",[31],47.6%
same,"viability, T/C",[32],36.8%
same,"viability, T/C",[33],37.3%
same,"viability, T/C",[34],40.4%
same,"viability, T/C",[35],37.8%
same,"viability, T/C",[36],0.36%
O=C(c1cc(Cc2n[nH]c(=O)c3ccccc23)ccc1F)N1CCN(C(=O)C2CC2)CC1 + Cc1[nH]c2ccc(F)cc2c1-c1nc2c3cccnc3c3ncccc3c2[nH]1,IC50,second compound 0.0316 µM,> 10 µM
same,IC50,second compound 0.1 µM,> 10 µM
same,IC50,second compound 0.316 µM,> 10 µM
same,IC50,second compound 1 µM,> 10 µM
same,IC50,second compound 3.16 µM,> 10 µM
same,IC50,second compound 10 µM,> 10 µM
same,"viability, T/C",[1],110%
same,"viability, T/C",[2],91.6%
same,"viability, T/C",[3],103%
same,"viability, T/C",[4],90.9%
same,"viability, T/C",[5],98.8%
same,"viability, T/C",[6],54.9%
same,"viability, T/C",[7],93.2%
same,"viability, T/C",[8],106%
same,"viability, T/C",[9],97%
same,"viability, T/C",[10],100%
same,"viability, T/C",[11],82.3%
same,"viability, T/C",[12],66.2%
same,"viability, T/C",[13],98.1%
same,"viability, T/C",[14],94.5%
same,"viability, T/C",[15],91.3%
same,"viability, T/C",[16],92.6%
same,"viability, T/C",[17],89.9%
same,"viability, T/C",[18],53.8%
same,"viability, T/C",[19],79.3%
same,"viability, T/C",[20],99.4%
same,"viability, T/C",[21],97.4%
same,"viability, T/C",[22],86%
same,"viability, T/C",[23],89.2%
same,"viability, T/C",[24],62.1%
same,"viability, T/C",[25],99%
same,"viability, T/C",[26],101%
same,"viability, T/C",[27],113%
same,"viability, T/C",[28],105%
same,"viability, T/C",[29],93.1%
same,"viability, T/C",[30],68.3%
same,"viability, T/C",[31],89%
same,"viability, T/C",[32],102%
same,"viability, T/C",[33],114%
same,"viability, T/C",[34],87.6%
same,"viability, T/C",[35],86.5%
same,"viability, T/C",[36],59.2%
COc1ncnc(C2CC2)c1-c1ncc2cnn(Cc3ccc(-c4nc(C(F)(F)F)cn4C(C)C)cc3)c2n1 + CN(C)c1ccc(Nc2c3ccc(NC(=O)CCN4CCCC4)cc3nc3cc(NC(=O)CCN4CCCC4)ccc23)cc1,IC50,second compound 0.0316 µM,> 10 µM
same,IC50,second compound 0.1 µM,> 10 µM
same,IC50,second compound 0.316 µM,> 10 µM
same,IC50,second compound 1 µM,> 10 µM
same,IC50,second compound 3.16 µM,> 10 µM
same,IC50,second compound 10 µM,> 10 µM
same,"viability, T/C",[1],106%
same,"viability, T/C",[2],102%
same,"viability, T/C",[3],101%
same,"viability, T/C",[4],101%
same,"viability, T/C",[5],106%
same,"viability, T/C",[6],98.1%
same,"viability, T/C",[7],102%
same,"viability, T/C",[8],93.2%
same,"viability, T/C",[9],105%
same,"viability, T/C",[10],94.8%
same,"viability, T/C",[11],99%
same,"viability, T/C",[12],98.2%
same,"viability, T/C",[13],92.8%
same,"viability, T/C",[14],110%
same,"viability, T/C",[15],105%
same,"viability, T/C",[16],98.7%
same,"viability, T/C",[17],103%
same,"viability, T/C",[18],85.6%
same,"viability, T/C",[19],100%
same,"viability, T/C",[20],114%
same,"viability, T/C",[21],101%
same,"viability, T/C",[22],107%
same,"viability, T/C",[23],112%
same,"viability, T/C",[24],84.3%
same,"viability, T/C",[25],99.1%
same,"viability, T/C",[26],98%
same,"viability, T/C",[27],113%
same,"viability, T/C",[28],108%
same,"viability, T/C",[29],118%
same,"viability, T/C",[30],95%
same,"viability, T/C",[31],111%
same,"viability, T/C",[32],116%
same,"viability, T/C",[33],106%
same,"viability, T/C",[34],99.2%
same,"viability, T/C",[35],105%
same,"viability, T/C",[36],53.8%
